Earlier results in patent US20090004105A1, “Molecular imaging of matrix metalloproteinase expression using labeled chlorotoxin” (priority 2007, published 2009).

Assays:
[1] = system: tumors of neuroectodermal origin; conditions: immunohistochemical studies, Lyons et al. 2002
[2] = target: T1, MMP-2 presented on the surface of glioma cells (Homo sapiens, UniProt P08253); conditions: Deshane et al. 2003
T1 sequence (P08253 110-660): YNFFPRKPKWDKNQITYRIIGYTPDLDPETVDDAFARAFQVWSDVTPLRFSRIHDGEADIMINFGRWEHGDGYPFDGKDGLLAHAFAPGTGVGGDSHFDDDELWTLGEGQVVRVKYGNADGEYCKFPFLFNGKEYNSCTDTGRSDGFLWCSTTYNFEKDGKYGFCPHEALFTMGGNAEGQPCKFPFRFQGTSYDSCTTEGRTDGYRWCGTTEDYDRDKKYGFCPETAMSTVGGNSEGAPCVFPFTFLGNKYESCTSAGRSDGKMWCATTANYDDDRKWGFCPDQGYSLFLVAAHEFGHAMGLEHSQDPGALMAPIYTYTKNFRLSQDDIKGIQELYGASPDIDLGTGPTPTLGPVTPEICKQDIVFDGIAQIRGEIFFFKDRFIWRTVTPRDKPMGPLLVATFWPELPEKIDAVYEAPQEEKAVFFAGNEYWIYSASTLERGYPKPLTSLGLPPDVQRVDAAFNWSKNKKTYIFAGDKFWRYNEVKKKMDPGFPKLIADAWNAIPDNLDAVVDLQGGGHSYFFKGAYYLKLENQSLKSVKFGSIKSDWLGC

## Chlorotoxin [Cltx]
[1]
  binding to tumors of neuroectodermal origin: specifically and selectively binds
[2]
  MMP-2 inhibition: specific MMP-2 inhibitor
  binding affinity to MMP-2 on glioma cell surface: high affinity
